Ten compounds from ChEMBL document CHEMBL5385907, “Proline-Hinged α-Helical Peptides Sensitize Gram-Positive Antibiotics, Expanding Their Physicochemical Properties to Be Used as Gram-Negative Antibiotics” (J Med Chem, 2024) can be followed below.

≈ marks a conversion by molar mass, not a printed value. Calls of active or inactive are those of the source. The rule behind the calls is not given here.

Data set [1] deals with Klebsiella pneumoniae. The data set can be described thus: Antibacterial activity against Klebsiella pneumoniae ATCC 700603 assessed as inhibition of bacterial growth incubated for 18 hrs by two fold serial dilution assay. It counts as functional.
Data set [2] relates to Escherichia coli. The data set can be described thus: Potentiation of novobiocin induced antibacterial activity against Escherichia coli ATCC 25922 assessed as decrease in bacterial growth at 0.4 uM incubated for 18 hrs in presence of novobiocin by two fold serial dilution assay. The class given is functional, organism-based.
For data set [3], the system named is Klebsiella pneumoniae. The data set can be described thus: Potentiation of novobiocin induced antibacterial activity against Klebsiella pneumoniae ATCC 700603 assessed as decrease in bacterial growth at 0.4 uM incubated for 18 hrs in presence of novobiocin by two fold serial dilution assay. The class given is functional, organism-based.
Data set [4] relates to Escherichia coli. The data set can be described thus: Potentiation of fusidic acid induced antibacterial activity against Escherichia coli ATCC 25922 assessed as decrease in bacterial growth at 0.4 uM incubated for 18 hrs in presence of fusidic acid by two fold serial dilution assay. It counts as functional, organism-based.
Data set [5] has as its system Escherichia coli. The data set can be described thus: Potentiation of erythromycin induced antibacterial activity against Escherichia coli ATCC 25922 assessed as decrease in bacterial growth at 0.4 uM incubated for 18 hrs in presence of erythromycin by two fold serial dilution assay. It counts as functional, organism-based.
Data set [6] relates to Escherichia coli. The experiment in a line: Antibacterial activity against Escherichia coli ATCC 25922 assessed as inhibition of bacterial growth incubated for 18 hrs by two fold serial dilution assay. It counts as functional.
The nature of data set [7]: Hydrophobicity of the compound assessed as retention time by reversed-phase HPLC analysis. The class given is physicochemical.
Data set [8] deals with Acinetobacter baumannii. The experiment in a line: Antibacterial activity against Acinetobacter baumannii ATCC 17978 assessed as inhibition of bacterial growth incubated for 18 hrs by two fold serial dilution assay. It counts as functional.
For data set [9], the system named is Klebsiella pneumoniae. The experiment in a line: Potentiation of fusidic acid induced antibacterial activity against Klebsiella pneumoniae ATCC 700603 assessed as decrease in bacterial growth at 0.4 uM incubated for 18 hrs in presence of fusidic acid by two fold serial dilution assay. It counts as functional, organism-based.
For data set [10], the system named is Klebsiella pneumoniae. The data set can be described thus: Potentiation of erythromycin induced antibacterial activity against Klebsiella pneumoniae ATCC 700603 assessed as decrease in bacterial growth at 0.4 uM incubated for 18 hrs in presence of erythromycin by two fold serial dilution assay. It counts as functional, organism-based.
The test system of data set [11] is Acinetobacter baumannii. The data set can be described thus: Potentiation of fusidic acid induced antibacterial activity against Acinetobacter baumannii ATCC 17978 assessed as decrease in bacterial growth at 0.4 uM incubated for 18 hrs in presence of fusidic acid by two fold serial dilution assay. The class given is functional, organism-based.
For data set [12], the system named is Acinetobacter baumannii. The experiment in a line: Potentiation of erythromycin induced antibacterial activity against Acinetobacter baumannii ATCC 17978 assessed as decrease in bacterial growth at 0.4 uM incubated for 18 hrs in presence of erythromycin by two fold serial dilution assay. The class given is functional, organism-based.
Data set [13] deals with Acinetobacter baumannii. The experiment in a line: Potentiation of novobiocin induced antibacterial activity against Acinetobacter baumannii ATCC 17978 assessed as decrease in bacterial growth at 0.4 uM incubated for 18 hrs in presence of novobiocin by two fold serial dilution assay. It counts as functional, organism-based.
A short description of data set [14]: Hemolytic activity in human blood assessed as hemolysis incubated for 6 hrs by microplate reader analysis. The class given is toxicity, tissue-based.

With Ac-KKLLKLLKKPLKLAK-NH2, the MIC in the data set with Klebsiella pneumoniae [1] was greater than 80 µM; in the data set with Escherichia coli [6], greater than 80 µM; with Acinetobacter baumannii [8], 80 µM. The outcome in the data set on Escherichia coli [2], with Klebsiella pneumoniae [3], in the data set on Escherichia coli [4], in the data set with Escherichia coli [5], with Klebsiella pneumoniae [9] and with Klebsiella pneumoniae [10] was Active. The outcome with Acinetobacter baumannii [11], in the data set with Acinetobacter baumannii [12] and in the data set on Acinetobacter baumannii [13] was Active. In data set [7], the Retention_time was 17.1 min. The MHC10 in data set [14] was greater than 160 µM.

As for Ac-KKLLKLAKKPLKLLK-NH2, the MIC in the data set on Klebsiella pneumoniae [1], in the data set with Escherichia coli [6] and in the data set on Acinetobacter baumannii [8] was greater than 80 µM in each case. Moreover, the result with Escherichia coli [2], in the data set with Klebsiella pneumoniae [3], in the data set with Escherichia coli [4], with Escherichia coli [5], in the data set with Klebsiella pneumoniae [9] and with Klebsiella pneumoniae [10] was Active. Further, the outcome in the data set with Acinetobacter baumannii [11], in the data set on Acinetobacter baumannii [12] and with Acinetobacter baumannii [13] was Active. In data set [7], the Retention_time was determined as 16.8 min. In data set [14], the MHC10 is greater than 160 µM.

On to `CC(=O)N[C@@H](CCCCN)C(=O)N[C@@H](CCCCN)C(=O)N[C@@H](CC(C)C)C(=O)N[C@@H](CC(C)C)C(=O)N[C@@H](CCCCN)C(=O)N[C@@H](CC(C)C)C(=O)N[C@@H](CC(C)C)C(=O)N[C@@H](CCCCN)C(=O)N[C@@H](CCCCN)C(=O)N1CCC[C@H]1C(=O)N[C@@H](CC(C)C)C(=O)N[C@@H](CCCCN)C(=O)N[C@@H](CC(C)C)C(=O)N[C@@H](CC(C)C)C(=O)N[C@@H](CCCCN)C(N)=O`, for which the MIC in the data set on Klebsiella pneumoniae [1] is greater than 80 µM; in the data set on Escherichia coli [6] it was greater than 80 µM; with Acinetobacter baumannii [8], 10 µM (≈ 18.5 µg/mL). The outcome with Escherichia coli [2], in the data set on Klebsiella pneumoniae [3], in the data set with Escherichia coli [4], in the data set with Escherichia coli [5], in the data set on Klebsiella pneumoniae [9] and in the data set with Klebsiella pneumoniae [10] was Active. Also, the result in the data set on Acinetobacter baumannii [11], with Acinetobacter baumannii [12] and with Acinetobacter baumannii [13] was Active. In [7], the Retention_time is on record as 18.2 min. Besides, in data set [14], the MHC10 is greater than 160 µM.

Take Ac-AKLLKLLKKPLKLLK-NH2: the minimum inhibitory concentration (MIC) with Klebsiella pneumoniae [1] was greater than 80 µM; in the data set on Escherichia coli [6], greater than 80 µM; in the data set with Acinetobacter baumannii [8], 40 µM. Also, the result in the data set on Escherichia coli [2], in the data set with Klebsiella pneumoniae [3], in the data set with Escherichia coli [4], in the data set on Escherichia coli [5], in the data set on Klebsiella pneumoniae [9] and in the data set with Klebsiella pneumoniae [10] was Active. In addition, the result in the data set with Acinetobacter baumannii [11], in the data set with Acinetobacter baumannii [12] and in the data set with Acinetobacter baumannii [13] was Active. Moreover, the Retention_time in data set [7] amounted to 19.2 min. In [14], the MHC10 was greater than 160 µM.

On to Ac-KKALKLLKKPLKLLK-NH2, for which the minimal inhibitory concentration (MIC) in the data set with Klebsiella pneumoniae [1], in the data set with Escherichia coli [6] and in the data set on Acinetobacter baumannii [8] was greater than 80 µM each time. In addition, the result in the data set with Escherichia coli [2], with Klebsiella pneumoniae [3], in the data set with Escherichia coli [4], with Escherichia coli [5], in the data set with Klebsiella pneumoniae [9] and in the data set on Klebsiella pneumoniae [10] was Active. The result in the data set on Acinetobacter baumannii [11], in the data set on Acinetobacter baumannii [12] and in the data set with Acinetobacter baumannii [13] was Active. For the same compound, in [7], the Retention_time was determined as 16.7 min. Besides, the MHC10 in data set [14] was greater than 160 µM.

Take Ac-KKLLKLLKKPAKLLK-NH2: the MIC in the data set with Klebsiella pneumoniae [1] is greater than 80 µM; in the data set with Escherichia coli [6], greater than 80 µM; in the data set on Acinetobacter baumannii [8] it was 80 µM. Also, the result with Escherichia coli [2], in the data set with Klebsiella pneumoniae [3], with Escherichia coli [4], in the data set on Escherichia coli [5], in the data set on Klebsiella pneumoniae [9] and in the data set on Klebsiella pneumoniae [10] was Active. The outcome in the data set with Acinetobacter baumannii [11], in the data set on Acinetobacter baumannii [12] and in the data set on Acinetobacter baumannii [13] was Active. Further, in data set [7], the Retention_time is 17.1 min. For the same compound, the MHC10 in data set [14] is greater than 160 µM.

As to Ac-KKLLKLLKAPLKLLK-NH2, the minimum inhibitory concentration (MIC) is greater than 80 µM in the data set with Klebsiella pneumoniae [1], greater than 80 µM with Escherichia coli [6] and 20 µM in the data set with Acinetobacter baumannii [8]. For the same compound, the result with Escherichia coli [2], with Klebsiella pneumoniae [3], in the data set with Escherichia coli [4], in the data set on Escherichia coli [5], with Klebsiella pneumoniae [9] and in the data set with Klebsiella pneumoniae [10] was Active. Besides, the outcome in the data set with Acinetobacter baumannii [11], in the data set with Acinetobacter baumannii [12] and in the data set with Acinetobacter baumannii [13] was Active. In data set [7], the Retention_time came to 19.6 min. In addition, the MHC10 in data set [14] is greater than 160 µM.

On to Ac-KKLLKLLKKPLKLLA-NH2, for which the results for the MIC with Klebsiella pneumoniae [1], with Escherichia coli [6] and in the data set with Acinetobacter baumannii [8] were greater than 80 µM, greater than 80 µM and 2.5 µM, respectively. In addition, the outcome in the data set with Escherichia coli [2], with Klebsiella pneumoniae [3], in the data set on Escherichia coli [4], in the data set on Escherichia coli [5], in the data set with Klebsiella pneumoniae [9] and in the data set on Klebsiella pneumoniae [10] was Active. In addition, the outcome in the data set on Acinetobacter baumannii [11], in the data set with Acinetobacter baumannii [12] and in the data set with Acinetobacter baumannii [13] was Active. For the same compound, the Retention_time in data set [7] worked out at 18.9 min. The MHC10 in data set [14] was greater than 160 µM.

For Ac-KKLLKLLKKPLKALK-NH2, the MIC in the data set on Klebsiella pneumoniae [1] was greater than 80 µM; with Escherichia coli [6], greater than 80 µM; in the data set on Acinetobacter baumannii [8], 40 µM. For the same compound, the result with Escherichia coli [2], with Klebsiella pneumoniae [3], in the data set with Escherichia coli [4], in the data set on Escherichia coli [5], with Klebsiella pneumoniae [9] and in the data set with Klebsiella pneumoniae [10] was Active. Further, the result in the data set with Acinetobacter baumannii [11], in the data set on Acinetobacter baumannii [12] and in the data set with Acinetobacter baumannii [13] was Active. The Retention_time in data set [7] came to 17.5 min. For the same compound, the MHC10 in data set [14] is greater than 160 µM.

On to Ac-KKLLKLLAKPLKLLK-NH2, for which the MIC is greater than 80 µM in the data set on Klebsiella pneumoniae [1], greater than 80 µM with Escherichia coli [6] and 40 µM in the data set with Acinetobacter baumannii [8]. Besides, the result with Escherichia coli [2], in the data set on Klebsiella pneumoniae [3], in the data set with Escherichia coli [4], in the data set with Escherichia coli [5], in the data set on Klebsiella pneumoniae [9] and in the data set with Klebsiella pneumoniae [10] was Active. The result in the data set on Acinetobacter baumannii [11], in the data set with Acinetobacter baumannii [12] and in the data set on Acinetobacter baumannii [13] was Active. Moreover, the Retention_time in data set [7] is given as 19.6 min. In data set [14], the MHC10 is greater than 160 µM.

Usually MIC stands for the lowest concentration that inhibits growth of the organism.
